Test results as given in patent publication US6551964B1, “Use of citric acid derivatives as pesticidal adjuvants” (Bayer Cropscience S.A., priority 1998, dated 2003).
Where a name gives a salt, the structure may show the parent alone.

Test system: test species shown in Table C (common weeds)
Test: Herbicidal efficacy, glasshouse, all test species of Table C
Assay type: in vivo
Details: adjuvant alone, experiments 26d to 29d

CCCCOC(=O)CC(CC(=O)OCCCC)(OC(C)=O)C(=O)OCCCC [O-acetyl tri-n-butyl citrate]
herbicidal effects in the absence of any active ingredient: no herbicidal effects

CCCCOC(=O)CC(O)(CC(=O)OCCCC)C(=O)OCCCC [tri-n-butyl citrate]
herbicidal effects in the absence of any active ingredient: no herbicidal effects
